From the supplement of paper PMC4862054

Columns and labels:
Settings in all cases: incubation time: 72 h
DU-4475 [1] = test: drug sensitivity score (DSS), CellTiter-Glo (DSS (AUC-based score)); higher = stronger drug effect (viability inhibition or cytotoxicity); extreme values may be limits of the assay
Procedure, shortened: (§1)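 After 72 h of incubation in 384-well plates with compound at 5 concentrations (10-fold steps, 10,000-fold range set per compound), breast cancer cell lines seeded in 20 µl suspension were read first for CellTox Green fluorescence at 485/520 nm. CellTiter-Glo luminescence was measured next, after 10 min at room temperature. Normalisation on each plate used 0.1 % DMSO and a positive kill control, and the drug sensitivity score was computed from the area under the fitted dose-response curve.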

HCC1143 [2] = test: as above
Procedure, shortened: as §1

Hs578T [3] = test: as above
Procedure, shortened: as §1

MCF-10A [4] = test: as above
Procedure, shortened: as §1

MDA-MB-231 [5] = test: as above
Procedure, shortened: as §1

MDA-MB-453 [6] = test: as above
Procedure, shortened: as §1

MFM-223 [7] = test: as above
Procedure, shortened: as §1

SK-BR-3 [8] = test: as above
Procedure, shortened: as §1

BT-474 = test: normalised response (% of control), CellTiter-Glo; higher = more viable cells (100 = DMSO, 0 = benzethonium chloride kill control)
Procedure, shortened: (§2)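 Values are normalised signals, each belonging to one concentration of the series. Breast cancer cells (20 µl suspension) were seeded into 384-well plates with compound at 5 concentrations in 10-fold steps over a compound-specific 10,000-fold range and incubated 72 h. Readouts were CellTox Green fluorescence (485/520 nm), then CellTiter-Glo luminescence after 10 min at room temperature, with each plate set to 0.1 % DMSO as 100 and a positive kill control as 0.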

BT-549 = test: as above
Procedure, shortened: as §2

CAL-120 = test: as above
Procedure, shortened: as §2

CAL-148 = test: as above
Procedure, shortened: as §2

CAL-51 = test: as above
Procedure, shortened: as §2

CAL-85-1 = test: as above
Procedure, shortened: as §2

DU-4475 [9] = test: as above
Procedure, shortened: as §2

HCC1143 [10] = test: as above
Procedure, shortened: as §2

HCC1599 = test: as above
Procedure, shortened: as §2

HCC1937 = test: as above
Procedure, shortened: as §2

HDQ-P1 = test: as above
Procedure, shortened: as §2

Hs578T [11] = test: as above
Procedure, shortened: as §2

MCF-10A [12] = test: as above
Procedure, shortened: as §2

MDA-MB-231 [13] = test: as above
Procedure, shortened: as §2

MDA-MB-436 = test: as above
Procedure, shortened: as §2

MDA-MB-453 [14] = test: as above
Procedure, shortened: as §2

MDA-MB-468 = test: as above
Procedure, shortened: as §2

MFM-223 [15] = test: as above
Procedure, shortened: as §2

SK-BR-3 [16] = test: as above
Procedure, shortened: as §2

Structure (SMILES) | drug sensitivity score (DU-4475 [1]) | drug sensitivity score (HCC1143 [2]) | drug sensitivity score (Hs578T [3]) | drug sensitivity score (MCF-10A [4]) | drug sensitivity score (MDA-MB-231 [5]) | drug sensitivity score (MDA-MB-453 [6]) | drug sensitivity score (MFM-223 [7]) | drug sensitivity score (SK-BR-3 [8]) | normalised response (BT-474) | normalised response (BT-549) | normalised response (CAL-120) | normalised response (CAL-148) | normalised response (CAL-51) | normalised response (CAL-85-1) | normalised response (DU-4475 [9]) | normalised response (HCC1143 [10]) | normalised response (HCC1599) | normalised response (HCC1937) | normalised response (HDQ-P1) | normalised response (Hs578T [11]) | normalised response (MCF-10A [12]) | normalised response (MDA-MB-231 [13]) | normalised response (MDA-MB-436) | normalised response (MDA-MB-453 [14]) | normalised response (MDA-MB-468) | normalised response (MFM-223 [15]) | normalised response (SK-BR-3 [16])
N[C@@H](CSC(c1ccccc1)(c1ccccc1)c1ccccc1)C(=O)O [S-trityl-L-cysteine] | 0 | 0 | 0 | 0 | 0 | 0 | 0 | 0 | – | – | – | – | – | – | – | – | – | – | – | – | – | – | – | – | – | – | –
COc1cc2nccc(Oc3ccc(NC(=O)C4(C(=O)Nc5ccc(F)cc5)CC4)cc3)c2cc1OC [Cabozantinib] | 0 | 0 | 0 | 0 | 0 | 0 | 0 | 0 | – | – | – | – | – | – | – | – | – | – | – | – | – | – | – | – | – | – | –
CC1(C)NC(=O)N(c2ccc([N+](=O)[O-])c(C(F)(F)F)c2)C1=O [Nilutamide] | 0 | 0 | 0 | 0 | 0 | 0 | 0 | 0 | – | – | – | – | – | – | – | – | – | – | – | – | – | – | – | – | – | – | –
C#Cc1cccc(Nc2ncnc3cc(OCCOC)c(OCCOC)cc23)c1 [Erlotinib] | 0 | 0 | 0 | 16.3 | 0 | 0 | 0 | 2.74 | – | – | – | – | – | – | – | – | – | – | – | – | – | – | – | – | – | – | –
O=C(CCCCCCC(=O)Nc1ccc([C@H]2O[C@@H](CSc3nc(-c4ccccc4)c(-c4ccccc4)o3)C[C@@H](c3ccc(CO)cc3)O2)cc1)NO [Tubacin] | 1.66 | 3.15 | 0 | 0 | 6.83 | 8.42 | 4.83 | 1.97 | – | – | – | – | – | – | – | – | – | – | – | – | – | – | – | – | – | – | –
C[C@@H](Oc1cc(-c2cnn(C3CCNCC3)c2)cnc1N)c1c(Cl)ccc(F)c1Cl [Crizotinib] | 0 | 0 | 0 | 0 | 0 | 0 | 0 | 0 | – | – | – | – | – | – | – | – | – | – | – | – | – | – | – | – | – | – | –
CN(C)/N=N/c1[nH]cnc1C(N)=O [Dacarbazine] | 0 | 0 | 0 | 0 | 0 | 0 | 0 | 0 | – | – | – | – | – | – | – | – | – | – | – | – | – | – | – | – | – | – | –
O=C1CCC(N2C(=O)c3ccccc3C2=O)C(=O)N1 (stereo unspecified) [Thalidomide] | 0 | 0 | 0 | 0 | 0 | 0 | 0 | 0 | – | – | – | – | – | – | – | – | – | – | – | – | – | – | – | – | – | – | –
Clc1ccc(Nc2nnc(Cc3ccncc3)c3ccccc23)cc1 [Vatalanib] | 0 | 0 | 0 | 0 | 0 | 0 | 0 | 0 | – | – | – | – | – | – | – | – | – | – | – | – | – | – | – | – | – | – | –
C[C@]12CC[C@@H]3c4ccc(O)cc4C[C@@H](CCCCCCCCC[S+]([O-])CCCC(F)(F)C(F)(F)F)[C@H]3[C@@H]1CC[C@@H]2O (stereo partly specified) [Fulvestrant] | 0 | 0 | 0 | 0 | 0 | 0 | 0 | 0 | – | – | – | – | – | – | – | – | – | – | – | – | – | – | – | – | – | – | –
COc1cc2ncnc(Nc3ccc(F)c(Cl)c3)c2cc1NC(=O)/C=C/CN1CCCCC1 [Dacomitinib] | 0 | 0 | 0 | 16.9 | 0.139 | 5.43 | 0 | 14.6 | – | – | – | – | – | – | – | – | – | – | – | – | – | – | – | – | – | – | –
CN(C)/N=N/c1[nH]cnc1C(N)=O [Dacarbazine] (10000 nM) | – | – | – | – | – | – | – | – | 102% | 99.4% | 86% | 103% | 135% | 101% | 107% | 109% | 109% | 96.5% | 93.4% | 100% | 102% | 111% | 108% | 99.9% | 99.8% | 103% | 111%
Oc1nc(-c2ccc(C(F)(F)F)cc2)nc2c1CSCC2 [XAV-939] (10000 nM) | – | – | – | – | – | – | – | – | 73% | 90.5% | 92.8% | 94.4% | 66.6% | 95.8% | 87.3% | 91.4% | 80.6% | 89.7% | 86.7% | 95.9% | 84.5% | 74.5% | 91.8% | 81.7% | 92.1% | 89.4% | 84.5%
